Source: patent US8859508B2, “Application of 5-methyl-1,3-benzenediol or derivatives thereof in the preparation of medicines and functional foods for treatment or prevention of depression” (Kunming Institute of Botany, Chinese Academy of Sciences, priority 2007, dated 2014)

Key:
[1] = system: Sprague-Dawley rats; assay: Forced swim test (FST) in rats; assay type: in vivo, rat; settings: for Immobility time (s) (mean ± SEM): i.g.
[2] = system: CMS model mice; assay: TST in chronic unpredictable mild stress (CMS) model mice; assay type: in vivo, mouse; settings: for Immobility time (s) (mean ± SEM): oral once a day for 7 days
Experimental: Kunming mice (Certificate Number: A4CXK(Chuan)2003-16) from the Institute of Experimental Animals, People's Hospital of Sichuan Province, were used. They were 3-4 weeks old at the beginning of experiments and weighed 25-30 g. ORG was prepared as described in Example 1. Animals were divided into experiment groups with different doses, a vehicle control group, and an imipramine group (Sigma, Batch No. 106k1588) as positive control.
CMS model: The chronic mild stresses that Kunming mice were subjected to were reversal of circadian rhythm, continuous light, cold, damp bedding, tilt cages, food and water restriction, and restraint. […] The stress period lasted for 8 weeks. In the last week, ORG was administered orally once a day for 7 consecutive days. The behavioral test was carried out 30 min after the last administration. The parameter tested was immobility time in the FST and TST in the CMS model mice. The methods of FST and TST and data analysis were as described above.

[3] = system: Kunming mice; assay: Morris water maze (MWM) in mice; assay type: in vivo, mouse
Experimental: Kunming mice (Certificate Number: A4CXK(Chuan)2003-16) from the Institute of Experimental Animals, People's Hospital of Sichuan Province, were used. They were 3-4 weeks old at the beginning of the experiment and weighed 25-30 g. ORG was prepared as described in Example 1. Animals were divided into drug administration groups with fluoxetine or different doses of ORG and a vehicle control group. The drug administration groups received 1.75 mg/kg or 3.5 mg/kg of ORG or 15 mg/kg of fluoxetine. Animals received a single i.p. injection of drug or vehicle 30 min either after training every day or 30 min before the retention test on day 8.
Morris water maze: The MWM was performed in a circular pool (100 cm in diameter and 36 cm in depth) with a hidden platform (10 cm×10 cm) that was approximately 1 cm below the water surface. The pool was surrounded by yellow curtains with different shaped markers hanging in each quadrant. The time spent to find the hidden platform and the trajectory of the mouse were recorded by computer. From days 1 to 7, mice were placed in the pool to find the fixed hidden platform. On day 8, the platform was removed and the time that the mouse spent in the target quadrant was counted in 1 min of free swimming.
(§1) Data analysis: The results of the test are expressed as mean±SEM. One-way ANOVA was used followed by the LSD test with SPSS 11 software. The significance level was set at P<0.05.

[4] = system: SD model mice; assay: FST in sleep deprivation (SD) model mice; assay type: in vivo, mouse
Experimental: Kunming mice (Certificate Number: A4CXK(Chuan)2003-16) from the Institute of Experimental Animals, People's Hospital of Sichuan Province, were used. They were 3-4 weeks old at the beginning of the experiments and weighed 25-30 g. ORG was prepared as described in Example 1. Animals were divided into experiment groups with different doses, a vehicle control group, and an imipramine group (Sigma, Batch No. 1061c1588) as positive control.
SD model: A modified method with multiple platforms in a water environment was used to establish the SD model in mice. Mice on the platforms were free to eat and drink. However, if it fell asleep, it fell into the water because of the loss of muscle tone. The fallen animal climbed onto the platform again via a tilt pole which propped up the platforms. After 72 h of sleep deprivation, ORG was administered orally 24 h and 5 h before the FST started. The immobility time of animals were recorded. Methods and data analysis were as described above.

[5] = system: Kunming mice; assay: Elevated plus maze (EPM) test in mice; assay type: in vivo, mouse; settings: i.p. 24 h and 5 h before test
Experimental: Kunming mice (Certificate Number: A4CXK(Chuan)2003-16) from the Institute of Experimental Animals, People's Hospital of Sichuan Province, were used. They were 3-4 weeks old at the beginning of the experiment and weighed 25-30 g. ORG was prepared as described in Example 1. Animals were divided into drug administration groups with different doses of ORG, a vehicle control group, and a diazepam group (Jinyao Ltd. Co., Batch No. 106k1588) as positive control.
Elevated plus maze (EPM): The EPM had two open and two closed arms of equal size (30 cm long×5 cm wide). The two closed arms were connected by a central 5 cm×5 cm area. The whole maze was elevated to a height of 35 cm. ORG was administered i.p. 24 h and 5 h before the test started. Mice were individually placed in the center of the maze facing a closed arm. Each animal was tested for 5 min in a single session. The number of entrances into open arms, the number of entrances into closed arms, the total time spent in open arms, and the total time spent in closed arms were recorded; a standard of entry was defined as all limbs entering the arm. The number of entrances into open arms and time spent in open arms were the major indexes to evaluate the anxiety level of the animals, for the more entrances or time, the less the anxiety level.
as §1

SMILES: Cc1cc(O)cc(OC2OC(CO)C(O)C(O)C2O)c1 [ORG, orcinol-1-O-β-D-glucopyranoside]
- dose of the best efficacy ([1]; ORG administered orally): 4 mg/kg
- ED50 ([1]; Rattus norvegicus, po, ORG administered orally): ~0.22 mg/kg
- Immobility time (s) (mean ± SEM) ([1]; 0.0625 mg/kg, given at 0 and 19 h after pre-test swim): 187.20 ± 11.97 s
- Immobility time (s) (mean ± SEM) ([1]; 0.125 mg/kg): 181.50 ± 8.19 s
- Immobility time (s) (mean ± SEM) ([1]; 0.1875 mg/kg): 138.90 ± 13.31 s
- Immobility time (s) (mean ± SEM) ([1]; 0.25 mg/kg): 121.05 ± 9.44 s
- Immobility time (s) (mean ± SEM) ([1]; 0.5 mg/kg): 113.70 ± 6.74 s
- Immobility time (s) (mean ± SEM) ([1]; 1 mg/kg): 96.87 ± 7.40 s
- Immobility time (s) (mean ± SEM) ([1]; 2 mg/kg): 91.60 ± 7.06 s
- Immobility time (s) (mean ± SEM) ([1]; 4 mg/kg): 84.40 ± 9.20 s
- Immobility time (s) (mean ± SEM) ([1]; 8 mg/kg): 94.30 ± 9.86 s
- Immobility time (s) (mean ± SEM) ([1]; 16 mg/kg): 91.40 ± 11.36 s
- Immobility time (s) (mean ± SEM) ([1]; 32 mg/kg): 107.26 ± 10.74 s
- Immobility time (s) (mean ± SEM) ([1]; 64 mg/kg): 105.90 ± 19.77 s
- Immobility time (s) (mean ± SEM) ([1]; 128 mg/kg): 103.00 ± 17.42 s
- therapeutic index (TI) = TD50÷ED50 ([2]; CMS mice): > 415
- Immobility time (s) (mean ± SEM) ([2]; CMS mice, 5 mg/kg): 146.30 ± 11.66 s
- Immobility time (s) (mean ± SEM) ([2]; CMS mice, 10 mg/kg): 145.31 ± 12.41 s
- Immobility time (s) (mean ± SEM) ([2]; CMS mice, 20 mg/kg): 140.69 ± 14.14 s
- Immobility time (s) (mean ± SEM) ([2]; CMS mice, test 30 min after last dose, 1.25 mg/kg): 171.20 ± 13.02 s
- best dose for the antidepressant effect ([2]; CMS model mice, ORG oral): 20 mg/kg
- ED50 ([2]; Mus musculus, CMS model mice, ORG oral): ~4.22 mg/kg
- Time spent in the right quadrant (s) (mean ± SEM) ([3]; i.p. 30 min before retrieval on day 8, 1.75 mg/kg): 29.38 ± 2.16 s
- Time spent in the right quadrant (s) (mean ± SEM) ([3]; i.p. 30 min before retrieval on day 8, 3.5 mg/kg): 35.52 ± 2.43 s
- Time spent in the right quadrant (s) (mean ± SEM) ([3]; i.p. daily 30 min after training, retention test day 8, 1.75 mg/kg): 28.18 ± 1.70 s
- Time spent in the right quadrant (s) (mean ± SEM) ([3]; i.p. daily 30 min after training, retention test day 8, 3.5 mg/kg): 34.24 ± 2.01 s
- dose of the best efficacy ([4]; FST, SD model mice, ORG oral twice): 10 mg/kg
- ED50 ([4]; Mus musculus, FST, SD model mice, ORG oral twice): ~3.79 mg/kg
- therapeutic index = TD50÷ED50 ([4]; SD mice, FST): > 462
- Immobility time (s) (mean ± SEM) ([4]; SD model mice (72 h sleep deprivation), oral 24 h and 5 h before FST, 1.25 mg/kg): 198.00 ± 11.43 s
- Immobility time (s) (mean ± SEM) ([4]; SD model mice, 24 h and 5 h before FST, 7.5 mg/kg): 153.00 ± 11.83 s
- Immobility time (s) (mean ± SEM) ([4]; SD model mice, oral 24 h and 5 h before FST, 2.5 mg/kg): 177.67 ± 15.95 s
- Immobility time (s) (mean ± SEM) ([4]; SD model mice, oral 24 h and 5 h before FST, 5 mg/kg): 160.80 ± 11.64 s
- Immobility time (s) (mean ± SEM) ([4]; SD model mice, oral 24 h and 5 h before FST, 10 mg/kg): 148.23 ± 7.80 s
- Immobility time (s) (mean ± SEM) ([4]; SD model mice, oral 24 h and 5 h before FST, 20 mg/kg): 162.67 ± 9.27 s
- Number of entries into open arms (mean ± SEM) ([5]; 5 mg/kg): 4.50 ± 0.58
- Total time spent in the open arms (s) (mean ± SEM) ([5]; 5 mg/kg): 50.00 ± 8.99 s
- Number of entries into open arms (mean ± SEM) ([5]; 20 mg/kg): 1.80 ± 0.79
- Total time spent in the open arms (s) (mean ± SEM) ([5]; 20 mg/kg): 16.50 ± 3.60 s
- Number of entries into open arms (mean ± SEM) ([5]; 100 mg/kg): 5.90 ± 0.57
- Total time spent in the open arms (s) (mean ± SEM) ([5]; 100 mg/kg): 70.60 ± 11.56 s
